{
  "source": "paper PMC9311154",
  "about": "(British Journal of Clinical Pharmacology, 2022)",
  "key": {"[1]": {"molecular_target": "CYP3A4 (Homo sapiens, UniProt P08684)", "sequence (P08684 whole entry)": "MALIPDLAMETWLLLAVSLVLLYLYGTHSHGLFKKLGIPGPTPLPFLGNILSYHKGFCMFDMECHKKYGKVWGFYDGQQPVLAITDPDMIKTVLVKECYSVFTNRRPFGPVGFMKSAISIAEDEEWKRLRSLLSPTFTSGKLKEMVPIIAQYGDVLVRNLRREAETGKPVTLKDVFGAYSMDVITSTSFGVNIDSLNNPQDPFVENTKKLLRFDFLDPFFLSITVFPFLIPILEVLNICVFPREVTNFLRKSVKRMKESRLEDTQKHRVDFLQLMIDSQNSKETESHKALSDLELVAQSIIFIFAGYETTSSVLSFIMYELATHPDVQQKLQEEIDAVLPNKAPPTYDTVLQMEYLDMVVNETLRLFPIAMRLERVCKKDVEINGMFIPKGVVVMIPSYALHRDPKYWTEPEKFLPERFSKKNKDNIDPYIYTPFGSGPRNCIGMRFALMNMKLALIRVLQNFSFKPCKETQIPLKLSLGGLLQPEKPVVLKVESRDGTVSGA", "assay": "Midazolam interaction study", "assay_type": "in vivo", "details": "for AUC ratio day 1/day−1, point estimate geometric LS means (geometric 90% CI) / AUC ratio day 10/day−1, point estimate geometric LS means (geometric 90% CI): ANOVA"}, "[2]": {"assay": "Safety and tolerability", "assay_type": "in vivo, human", "details": "midazolam alone"}, "[3]": {"details": "BAY 2433334 25 mg OD + Midazolam"}, "[4]": {"details": "BAY 2433334 75 mg OD + Midazolam"}, "[5]": {"details": "day 1, coadministration of BAY 2433334 25 mg"}, "[6]": {"details": "day 1, coadministration of BAY 2433334 75 mg"}, "[7]": {"details": "day 10, BAY 2433334 25 mg once daily"}, "[8]": {"details": "BAY 2433334 25 mg treatment sequence"}, "[9]": {"details": "BAY 2433334 75 mg treatment sequence"}},
  "data": [
    {"smiles": "Cc1ncc2n1-c1ccc(Cl)cc1C(c1ccccc1F)=NC2", "note": "[Midazolam, midazolam]", "values": [
      {"measurement": "AUC ratio day 1/day−1, point estimate geometric LS means (geometric 90% CI)", "setting": "[1]; [3]", "value": "1.0415 (0.9659–1.1230)"},
      {"measurement": "AUC ratio day 10/day−1, point estimate geometric LS means (geometric 90% CI)", "setting": "[1]; [3]", "value": "1.0630 (0.9859–1.1461)"},
      {"measurement": "AUC ratio day 1/day−1, point estimate geometric LS means (geometric 90% CI)", "setting": "[1]; [4]", "value": "1.0451 (0.9785–1.1164)"},
      {"measurement": "AUC ratio day 10/day−1, point estimate geometric LS means (geometric 90% CI)", "setting": "[1]; [4]", "value": "1.1736 (1.0963–1.2564)"},
      {"measurement": "AUC ratio day 10/day−1, point estimate geometric LS means (geometric 90% CI)", "setting": "[1]; BAY 2433334 75 mg OD + Midazolam, listed as midazolam", "value": "1.1736 [1.0963–1.2564]"},
      {"measurement": "increase in the AUC", "setting": "[1]; [5]", "value": 4.2, "unit": "%"},
      {"measurement": "increase in the AUC", "setting": "[1]; [6]", "value": 4.5, "unit": "%"},
      {"measurement": "increase in the AUC", "setting": "[1]; [7]", "value": 6.3, "unit": "%"},
      {"measurement": "increase in the AUC", "setting": "[1]; day 10, pre‐ and coadministration of BAY 2433334 75 mg", "value": 17, "unit": "%"},
      {"measurement": "half-life", "setting": "[1]; human, plasma, oral, 7.5 mg, t1/2, Day −1, midazolam 7.5 mg alone, BAY 2433334 75 mg OD group, median (range), geometric mean not calculated", "value": 287, "unit": "min"},
      {"measurement": "tmax", "setting": "[1]; human, plasma, oral, 7.5 mg, tmax, Day −1, midazolam 7.5 mg alone, BAY 2433334 25 mg OD group, median (range)", "value": 35, "unit": "min"},
      {"measurement": "tmax", "setting": "[1]; human, plasma, oral, 7.5 mg, tmax, Day −1, midazolam 7.5 mg alone, BAY 2433334 75 mg OD group, median (range)", "value": 45, "unit": "min"},
      {"measurement": "tmax", "setting": "[1]; human, plasma, oral, tmax, Day 1, midazolam 7.5 mg with BAY 2433334 25 mg OD, median (range)", "value": 44.5, "unit": "min"},
      {"measurement": "tmax", "setting": "[1]; human, plasma, oral, tmax, Day 1, midazolam 7.5 mg with BAY 2433334 75 mg OD, median (range)", "value": 45, "unit": "min"},
      {"measurement": "tmax", "setting": "[1]; human, plasma, oral, tmax, Day 10, midazolam 7.5 mg with BAY 2433334 25 mg OD, median (range)", "value": 45, "unit": "min"},
      {"measurement": "tmax", "setting": "[1]; human, plasma, oral, tmax, Day 10, midazolam 7.5 mg with BAY 2433334 75 mg OD, median (range)", "value": 45, "unit": "min"},
      {"measurement": "Adverse event(s) of special interest", "setting": "[2]; [8]", "value": "0 Number (%)"},
      {"measurement": "Study drug‐related adverse event(s)", "setting": "[2]; [8]", "value": "0 Number (%)"},
      {"measurement": "Study procedure‐related adverse event(s)", "setting": "[2]; [8]", "value": "3 (12.5%) Number (%)"},
      {"measurement": "Adverse event(s) of special interest", "setting": "[2]; [9]", "value": "0 Number (%)"},
      {"measurement": "Study drug‐related adverse event(s)", "setting": "[2]; [9]", "value": "0 Number (%)"},
      {"measurement": "Study procedure‐related adverse event(s)", "setting": "[2]; [9]", "value": "1 (4.2%) Number (%)"}
    ]},
    {"smiles": "OCc1ncc2n1-c1ccc(Cl)cc1C(c1ccccc1F)=NC2", "note": "[α‐Hydroxymidazolam, α‐hydroxymidazolam]", "values": [
      {"measurement": "AUC ratio day 1/day−1, point estimate geometric LS means (geometric 90% CI)", "setting": "[1]; [3]", "value": "1.0650 (0.9661–1.1741)"},
      {"measurement": "AUC ratio day 10/day−1, point estimate geometric LS means (geometric 90% CI)", "setting": "[1]; [3]", "value": "1.0560 (0.9595–1.1622)"},
      {"measurement": "AUC ratio day 1/day−1, point estimate geometric LS means (geometric 90% CI)", "setting": "[1]; [4]", "value": "0.9856 (0.9206–1.0551)"},
      {"measurement": "AUC ratio day 10/day−1, point estimate geometric LS means (geometric 90% CI)", "setting": "[1]; [4]", "value": "0.9864 (0.9169–1.0612)"},
      {"measurement": "AUC ratio day 10/day−1, point estimate geometric LS means (geometric 90% CI)", "setting": "[1]; BAY 2433334 75 mg OD + Midazolam, listed as α‐hydroxymidazolam", "value": "0.9864 [0.9169–1.0612]"},
      {"measurement": "tmax", "setting": "[1]; Day 1, midazolam 7.5 mg with BAY 2433334 25 mg OD, median (range)", "value": "0.742 (0.500–4.00) h"},
      {"measurement": "tmax", "setting": "[1]; Day 1, midazolam 7.5 mg with BAY 2433334 75 mg OD, median (range)", "value": "0.750 (0.483–4.00) h"},
      {"measurement": "tmax", "setting": "[1]; Day 10, midazolam 7.5 mg with BAY 2433334 25 mg OD, median (range)", "value": "0.750 (0.483–4.00) h"},
      {"measurement": "tmax", "setting": "[1]; Day 10, midazolam 7.5 mg with BAY 2433334 75 mg OD, median (range)", "value": "0.750 (0.483–2.00) h"},
      {"measurement": "tmax", "setting": "[1]; Day −1, midazolam 7.5 mg alone, BAY 2433334 25 mg OD group, median (range)", "value": "0.708 (0.483–4.00) h"},
      {"measurement": "tmax", "setting": "[1]; Day −1, midazolam 7.5 mg alone, BAY 2433334 75 mg OD group, median (range)", "value": "0.750 (0.500–3.00) h"},
      {"measurement": "increase in the AUC", "setting": "[1]; [5]", "value": 4.4, "unit": "%"},
      {"measurement": "decrease in the AUC", "setting": "[1]; [6]", "value": 1.5, "unit": "%"},
      {"measurement": "increase in the AUC", "setting": "[1]; [7]", "value": 6.0, "unit": "%"},
      {"measurement": "time to maximum plasma concentrations, range across treatments", "setting": "[1]; with and without BAY 2433334", "value": "0.583 to 0.750", "unit": "h"}
    ]}
  ]
}
